Assay results as given in patent US20240425517A1, “NOVEL COMPOUND FOR DEGRADATION OF TARGET PROTEIN OR POLYPEPTIDE BY POLYUBIQUITINATION” (PRAZER THERAPEUTICS INC., priority 2021, published 2024).

target: T1, BRD4 proteins (Homo sapiens, UniProt O60885); assay: Degradation of BRD4 protein in MM.1S cell lines (Western blot densitometry); type: cell-based; conditions: MM.1S cells, 10 μM, 24 hours
T1 construct: endogenous in cells; host or cells: MM.1S
In short: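 MM.1S cells in RPMI-1640 with 10% FBS were treated with each degrader at 10 μM for 24 h. RIPA lysates were analysed by SDS-PAGE/Western blot with β-actin as reference, and BRD4 band densitometry was scored as reduction <40% (+), 40-<70% (++) or ≥70% (+++).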

Row | Compound | BRD4 degrading capacity (%)
1 | COC(=O)c1cc(N2CCN(C(=O)CCNC(=O)C[C@@H]3N=C(c4ccc(Cl)cc4)c4c(sc(C)c4C)-n4c(C)nnc43)CC2)ccc1C#CCN.Cl [5-33′, methyl (S)-2-(3-aminoprop-1-yn-1-yl)-5-(4-(3-(2-(4-(4-chlorophenyl)-2,3,9-trimethyl-6H-thieno[3,2-f][1,2,4]triazolo[4,3-a][1,4]diazepin-6-yl)acetamido)propanoyl)piperazin-1-yl)benzoate hydrochloride] | ++ (the degrading capacity was reduced by 40% to 70% (exclusive of 70))
2 | COC(=O)c1ccc(NC2CCC(NC(=O)C[C@@H]3N=C(c4ccc(Cl)cc4)c4c(sc(C)c4C)-n4c(C)nnc43)CC2)cc1C#CCN (stereo partly drawn) [5-35′, methyl (S)-2-(3-aminoprop-1-yn-1-yl)-4-((4-(2-(4-(4-chlorophenyl)-2,3,9-trimethyl-6H-thieno[3,2-f][1,2,4]triazolo[4,3-a][1,4]diazepin-6-yl)acetamido)cyclohexyl)amino)benzoate trifluoroacetic acid] | +++ (the degrading capacity was reduced by 70% or more)
3 | COC(=O)c1ccc(C(=O)N2CCC3(CC2)CN(C(=O)C[C@@H]2N=C(c4ccc(Cl)cc4)c4c(sc(C)c4C)-n4c(C)nnc42)C3)cc1C#CCN [5-39′, methyl (S)-2-(3-aminoprop-1-yn-1-yl)-4-(2-(2-(4-(4-chlorophenyl)-2,3,9-trimethyl-6H-thieno[3,2-f][1,2,4]triazolo[4,3-a][1,4]diazepin-6-yl)acetyl)-2,7-diazaspiro[3.5]nonane-7-carbonyl)benzoate trifluoroacetic acid] | ++ (the degrading capacity was reduced by 40% to 70% (exclusive of 70))
4 | COC(=O)c1ccc(N2CC3(CN(C(=O)C[C@@H]4N=C(c5ccc(Cl)cc5)c5c(sc(C)c5C)-n5c(C)nnc54)C3)C2)cc1C#CCN [5-40′, methyl (S)-2-(3-aminoprop-1-yn-1-yl)-4-(6-(2-(4-(4-chlorophenyl)-2,3,9-trimethyl-6H-thieno[3,2-f][1,2,4]triazolo[4,3-a][1,4]diazepin-6-yl)acetyl)-2,6-diazaspiro[3.3]heptan-2-yl)benzoate trifluoroacetic acid] | +++ (the degrading capacity was reduced by 70% or more)
5 | COC(=O)c1ccc(C(=O)N2CC3(CN(C(=O)C[C@@H]4N=C(c5ccc(Cl)cc5)c5c(sc(C)c5C)-n5c(C)nnc54)C3)C2)cc1C#CCN [5-41′, methyl (S)-2-(3-aminoprop-1-yn-1-yl)-4-(6-(2-(4-(4-chlorophenyl)-2,3,9-trimethyl-6H-thieno[3,2-f][1,2,4]triazolo[4,3-a][1,4]diazepin-6-yl)acetyl)-2,6-diazaspiro[3.3]heptane-2-carbonyl)benzoate trifluoroacetic acid] | +++ (the degrading capacity was reduced by 70% or more)
6 | COC(=O)c1ccc(N2CC3CN(C(=O)C[C@@H]4N=C(c5ccc(Cl)cc5)c5c(sc(C)c5C)-n5c(C)nnc54)CC3C2)cc1C#CCN (stereo partly drawn) [5-44′, methyl 2-(3-aminoprop-1-yn-1-yl)-4-(5-(2-((S)-4-(4-chlorophenyl)-2,3,9-trimethyl-6H-thieno[3,2-f][1,2,4]triazolo[4,3-a][1,4]diazepin-6-yl)acetyl)hexahydropyrrolo[3,4-c]pyrrol-2(1H)-yl)benzoate trifluoroacetic acid] | ++ (the degrading capacity was reduced by 40% to 70% (exclusive of 70))
7 | Cc1sc2c(c1C)C(c1ccc(Cl)cc1)=N[C@@H](CC(=O)NCCCC(=O)Nc1ccc(C(=O)O)c(C#CCN)c1)c1nnc(C)n1-2.Cl [5-53′, (S)-2-(3-aminoprop-1-yn-1-yl)-4-(4-(2-(4-(4-chlorophenyl)-2,3,9-trimethyl-6H-thieno[3,2-f][1,2,4]triazolo[4,3-a][1,4]diazepin-6-yl)acetamido)butanamido)benzoic acid hydrochloride] | ++ (the degrading capacity was reduced by 40% to 70% (exclusive of 70))
8 | Cc1sc2c(c1C)C(c1ccc(Cl)cc1)=N[C@@H](CC(=O)NCCCC(=O)Nc1ccc(C(N)=O)c(C#CCN)c1)c1nnc(C)n1-2.Cl [5-59′, (S)-2-(3-aminoprop-1-yn-1-yl)-4-(4-(2-(4-(4-chlorophenyl)-2,3,9-trimethyl-6H-thieno[3,2-f][1,2,4]triazolo[4,3-a][1,4]diazepin-6-yl)acetamido)butanamido)benzamide hydrochloride] | +++ (the degrading capacity was reduced by 70% or more)
9 | Cc1sc2c(c1C)C(c1ccc(Cl)cc1)=N[C@@H](CC(=O)NCCCC(=O)Nc1ccc(C(=O)N(C)C)c(C#CCN)c1)c1nnc(C)n1-2.Cl [5-61′, (S)-2-(3-aminoprop-1-yn-1-yl)-4-(4-(2-(4-(4-chlorophenyl)-2,3,9-trimethyl-6H-thieno[3,2-f][1,2,4]triazolo[4,3-a][1,4]diazepin-6-yl)acetamido)butanamido)-N,N-dimethylbenzamide hydrochloride] | ++ (the degrading capacity was reduced by 40% to 70% (exclusive of 70))
10 | COc1ccc(NC(=O)CCCNC(=O)C[C@@H]2N=C(c3ccc(Cl)cc3)c3c(sc(C)c3C)-n3c(C)nnc32)cc1C#CCN [5-63′, (S)—N-(3-(3-aminoprop-1-yn-1-yl)-4-methoxyphenyl)-4-(2-(4-(4-chlorophenyl)-2,3,9-trimethyl-6H-thieno[3,2-f][1,2,4]triazolo[4,3-a][1,4]diazepin-6-yl)acetamido)butanamide trifluoroacetic acid] | ++ (the degrading capacity was reduced by 40% to 70% (exclusive of 70))
11 | Cc1ccc(NC(=O)CCCNC(=O)C[C@@H]2N=C(c3ccc(Cl)cc3)c3c(sc(C)c3C)-n3c(C)nnc32)cc1C#CCN.Cl [5-65′, (S)—N-(3-(3-aminoprop-1-yn-1-yl)-4-methylphenyl)-4-(2-(4-(4-chlorophenyl)-2,3,9-trimethyl-6H-thieno[3,2-f][1,2,4]triazolo[4,3-a][1,4]diazepin-6-yl)acetamido)butanamide hydrochloride] | + (the degrading capacity of each BRD4 degrader was reduced by less than 40%)
12 | Cc1sc2c(c1C)C(c1ccc(Cl)cc1)=N[C@@H](CC(=O)NCCCC(=O)Nc1ccc(C(F)(F)F)c(C#CCN)c1)c1nnc(C)n1-2.Cl [5-75′, (S)—N-(3-(3-aminoprop-1-yn-1-yl)-4-(trifluoromethyl)phenyl)-4-(2-(4-(4-chlorophenyl)-2,3,9-trimethyl-6H-thieno[3,2-f][1,2,4]triazolo[4,3-a][1,4]diazepin-6-yl)acetamido)butanamide hydrochloride] | +++ (the degrading capacity was reduced by 70% or more)
13 | Cc1sc2c(c1C)C(c1ccc(Cl)cc1)=N[C@@H](CC(=O)NCCCC(=O)Nc1ccc(F)c(C#CCN)c1)c1nnc(C)n1-2.Cl [5-77′, (S)—N-(3-(3-aminoprop-1-yn-1-yl)-4-fluorophenyl)-4-(2-(4-(4-chlorophenyl)-2,3,9-trimethyl-6H-thieno[3,2-f][1,2,4]triazolo[4,3-a][1,4]diazepin-6-yl)acetamido)butanamide hydrochloride] | + (the degrading capacity of each BRD4 degrader was reduced by less than 40%)
14 | COC(=O)c1c(C)cc(NC(=O)CCCNC(=O)C[C@@H]2N=C(c3ccc(Cl)cc3)c3c(sc(C)c3C)-n3c(C)nnc32)cc1C#CCN.Cl [5-78′, methyl (S)-2-(3-aminoprop-1-yn-1-yl)-4-(4-(2-(4-(4-chlorophenyl)-2,3,9-trimethyl-6H-thieno[3,2-f][1,2,4]triazolo[4,3-a][1,4]diazepin-6-yl)acetamido)butanamido)-6-methylbenzoate hydrochloride] | + (the degrading capacity of each BRD4 degrader was reduced by less than 40%)
15 | Cc1sc2c(c1C)C(c1ccc(Cl)cc1)=N[C@@H](CC(=O)NCCCC(=O)Nc1ccc(-c3cnc(C(F)(F)F)nc3)c(C#CCN)c1)c1nnc(C)n1-2.Cl [5-81′, (S)—N-(3-(3-aminoprop-1-yn-1-yl)-4-(2-(trifluoromethyl)pyrimidin-5-yl)phenyl)-4-(2-(4-(4-chlorophenyl)-2,3,9-trimethyl-6H-thieno[3,2-f][1,2,4]triazolo[4,3-a][1,4]diazepin-6-yl)acetamido)butanamide hydrochloride] | +++ (the degrading capacity was reduced by 70% or more)
16 | COC(=O)c1ccc(NCC2CCN(C(=O)C[C@@H]3N=C(c4ccc(Cl)cc4)c4c(sc(C)c4C)-n4c(C)nnc43)CC2)cc1C#CCN [5-85′, methyl (S)-2-(3-aminoprop-1-yn-1-yl)-4-(((1-(2-(4-(4-chlorophenyl)-2,3,9-trimethyl-6H-thieno[3,2-f][1,2,4]triazolo[4,3-a][1,4]diazepin-6-yl)acetyl)piperidin-4-yl)methyl)amino)benzoate trifluoroacetic acid] | +++ (the degrading capacity was reduced by 70% or more)
17 | COC(=O)c1ccc(NC2CCN(C(=O)C[C@@H]3N=C(c4ccc(Cl)cc4)c4c(sc(C)c4C)-n4c(C)nnc43)CC2)cc1C#CCN [5-86′, methyl (S)-2-(3-aminoprop-1-yn-1-yl)-4-((1-(2-(4-(4-chlorophenyl)-2,3,9-trimethyl-6H-thieno[3,2-f][1,2,4]triazolo[4,3-a][1,4]diazepin-6-yl)acetyl)piperidin-4-yl)amino)benzoate] | +++ (the degrading capacity was reduced by 70% or more)
18 | COC(=O)c1cc(C#CCN)cc(NC(=O)CCCNC(=O)C[C@@H]2N=C(c3ccc(Cl)cc3)c3c(sc(C)c3C)-n3c(C)nnc32)c1.Cl [5-89′, methyl (S)-3-(3-aminoprop-1-yn-1-yl)-5-(4-(2-(4-(4-chlorophenyl)-2,3,9-trimethyl-6H-thieno[3,2-f][1,2,4]triazolo[4,3-a][1,4]diazepin-6-yl)acetamido)butanamido)benzoate hydrochloride] | + (the degrading capacity of each BRD4 degrader was reduced by less than 40%)
